In publication PMC6934184, “Selective DNA-PKcs inhibition extends the therapeutic index of localized radiotherapy and chemotherapy” (The Journal of Clinical Investigation, 2019) one finds inhibition data, which are given here for one molecule.

What is called inhibition is the share of the control response that was lost under treatment. Higher therefore signals a strong effect.

This assay addresses T1, RPS6KA4 (MSK2) (Homo sapiens, UniProt O75676).
T1 construct: purchased Thermo Fisher Scientific (Life Technologies) SelectScreen
The experiment in a line: SelectScreen Z'LYTE. The format is biochemical. A digest of the protocol: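 SelectScreen broad panel; activity (Z'LYTE, Adapta) plus binding formats. ATP: Km app for CSF1R Z'LYTE; 10 for CAMK1 Adapta. Readout = % per kinase.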

T1 sequence (O75676 whole entry): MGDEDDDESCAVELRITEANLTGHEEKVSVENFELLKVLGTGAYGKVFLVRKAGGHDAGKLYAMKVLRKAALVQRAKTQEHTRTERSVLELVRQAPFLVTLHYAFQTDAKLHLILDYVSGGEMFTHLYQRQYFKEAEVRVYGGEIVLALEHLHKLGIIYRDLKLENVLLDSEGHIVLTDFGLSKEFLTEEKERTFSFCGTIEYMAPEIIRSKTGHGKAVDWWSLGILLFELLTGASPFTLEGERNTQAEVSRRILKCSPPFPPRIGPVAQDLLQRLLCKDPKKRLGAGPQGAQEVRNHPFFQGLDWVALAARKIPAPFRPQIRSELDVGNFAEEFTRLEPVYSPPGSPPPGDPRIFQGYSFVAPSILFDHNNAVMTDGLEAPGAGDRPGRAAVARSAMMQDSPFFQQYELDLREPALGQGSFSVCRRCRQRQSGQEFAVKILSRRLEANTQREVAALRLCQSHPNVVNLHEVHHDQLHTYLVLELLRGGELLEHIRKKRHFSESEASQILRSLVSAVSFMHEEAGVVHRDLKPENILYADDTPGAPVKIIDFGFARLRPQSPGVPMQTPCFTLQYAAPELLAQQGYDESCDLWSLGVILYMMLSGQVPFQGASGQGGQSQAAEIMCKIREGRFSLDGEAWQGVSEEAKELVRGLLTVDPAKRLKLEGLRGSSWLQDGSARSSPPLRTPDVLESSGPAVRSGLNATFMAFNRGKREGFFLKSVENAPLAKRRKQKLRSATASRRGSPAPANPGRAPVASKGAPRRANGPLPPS

In turn, `CN(C(=O)CN1CCOCC1)c1ccc2sc3c(-c4cccc5c(=O)cc(N6CC7CCC(C6)O7)oc45)cccc3c2c1` [NU5455] displayed an inhibition at 1 µM of 4.2%.
